Consider 20 compounds from PubChem BioAssay AID206 (DTP/NCI, 2004).

Structures are written as SMILES. Results filed as inconclusive are left out.

This assay deals with nude mice, HT29 intrarenal xenograft, tumor weight T/C. The assay is described as follows: NCI In Vivo Anticancer Drug Screen. Data for tumor model HT29;CX-1 Human Adenocarcinoma (MER+) (intrarenal inoculation) in NU/NU Swiss (nude) mice. The conditions noted are these: endpoint: mean tumor weight change, higher = larger tumour. The gist of the method:
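Tumor-bearing mice received test compound or vehicle, and tumor size or survival was recorded. Values are the treated-group measurement divided by the vehicle-treated control measurement.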

The mark [1] stands for this setting: dose: 150.0 mg/kg/injection, schedule: Q04DX004 (sc), vehicle: saline with Tween-80.
Setting [2] is: dose: 300.0 mg/kg/injection, schedule: Q04DX004 (sc), vehicle: saline with Tween-80.
Where [3] appears, read: dose: 600.0 mg/kg/injection, schedule: Q04DX004 (sc), vehicle: saline with Tween-80.
The mark [4] stands for this setting: dose: 75.0 mg/kg/injection, schedule: Q04DX004 (sc), vehicle: saline with Tween-80.
Setting [5] is: dose: 150.0 mg/kg/injection, schedule: Q04DX004 (sc), vehicle: saline.
Setting [6] is: dose: 300.0 mg/kg/injection, schedule: Q04DX004 (sc), vehicle: saline.

Consider `CO[C@H](/C(C)=C/C=C/C(C)=C/c1coc(C)n1)[C@H](C)[C@H]1C[C@@H](O)[C@@]2(C)O[C@H]2/C=C/[C@@H](C)[C@@H]2C[C@@H](CC(=O)O2)C[C@H]2O[C@@H]2C(=O)O1`, for which the T/C is 87 % of control (dose: 0.12 mg/kg/injection, schedule: Q04DX004 (sc), vehicle: Klucel (hydroxypropylcellulose) (HPC)); 45 % of control (dose: 0.25 mg/kg/injection, schedule: Q04DX004 (sc), vehicle: Klucel (hydroxypropylcellulose) (HPC)); 30 % of control (dose: 0.5 mg/kg/injection, schedule: Q04DX004 (sc), vehicle: Klucel (hydroxypropylcellulose) (HPC)).

Regarding `C[C@H]1C[C@@H]2[C@H]([C@@H](O)C[C@@]3(C)[C@H]2CC[C@]3(O)C(=O)CO)[C@@]2(C)C=CC(=O)C=C12`, for the setting “dose: 200.0 mg/kg/injection, schedule: Q04DX004 (sc), vehicle: Klucel (hydroxypropylcellulose) (HPC)”, the T/C is 69 % of control.

With `CCCN1COC(OCC)C(C)(C)C1` (configuration not stated), the T/C was 114 % of control under setting [1], 79 % of control under setting [2] and 96 % of control under setting [3].

Consider `CC[C@]1(O)C[C@H]2CN(CCc3c([nH]c4ccccc34)[C@@](C(=O)OC)(c3cc4c(cc3OC)N(C)[C@H]3[C@@](O)(C(=O)OC)[C@H](OC(C)=O)[C@]5(CC)C=CCN6CC[C@]43[C@@H]65)C2)C1`, for which the T/C is 76 % of control (dose: 0.25 mg/kg/injection, schedule: Q01DX010 (sc), vehicle: saline); 88 % of control (dose: 0.5 mg/kg/injection, schedule: Q01DX010 (sc), vehicle: saline); 60 % of control (dose: 1.0 mg/kg/injection, schedule: Q01DX010 (sc), vehicle: saline).

Regarding `CCC/C=C/C=C/C(=O)OC1/C(=C/C(=O)OC)CC2CC(C(C)O)OC(=O)CC(O)CC3CC(OC(C)=O)C(C)(C)C(O)(CC4C/C(=C/C(=O)OC)CC(/C=C/C(C)(C)C1(O)O2)O4)O3` (configuration not stated), the T/C (dose: 0.25 mg/kg/injection, schedule: Q04DX004 (sc), vehicle: saline + alcohol) is 95 % of control; the T/C (dose: 0.5 mg/kg/injection, schedule: Q04DX004 (sc), vehicle: saline + alcohol) is 110 % of control; the T/C (dose: 1.0 mg/kg/injection, schedule: Q04DX004 (sc), vehicle: saline + alcohol) was 33 % of control; the T/C (dose: 2.0 mg/kg/injection, schedule: Q04DX004 (sc), vehicle: saline + alcohol) was 47 % of control; the T/C (dose: 4.0 mg/kg/injection, schedule: Q04DX004 (sc), vehicle: saline + alcohol) is 53 % of control; the T/C (dose: 8.0 mg/kg/injection, schedule: Q04DX004 (sc), vehicle: saline + alcohol) was 88 % of control.

In the case of `ClCCCN1CCN(CCCCl)CC1`, the T/C reads like this: (dose: 62.5 mg/kg/injection, schedule: Q04DX004 (sc), vehicle: distilled water + alcohol) 52 % of control; (dose: 125.0 mg/kg/injection, schedule: Q04DX004 (sc), vehicle: distilled water + alcohol) 17 % of control.

For `C[Si](C)(C)n1nnn(-c2ccccc2)c1=O`, the T/C was 116 % of control (dose: 37.5 mg/kg/injection, schedule: Q04DX004 (sc), vehicle: saline with Tween-80); 120 % of control under setting [4]; 116 % of control under setting [2].

Regarding `CS(=O)(=O)c1ncc(Br)cn1`, the T/C was 83 % of control (dose: 62.5 mg/kg/injection, schedule: Q04DX004 (sc), vehicle: saline); 99 % of control under setting [4]; 109 % of control (dose: 125.0 mg/kg/injection, schedule: Q04DX004 (sc), vehicle: saline); 109 % of control under setting [1]; 92 % of control (dose: 250.0 mg/kg/injection, schedule: Q04DX004 (sc), vehicle: saline); 57 % of control under setting [2]. Under “dose: 500.0 mg/kg/injection, schedule: Q04DX004 (sc), vehicle: saline”, the T/C is 89 % of control.

For `CC[C@@]1(O)C[C@H](OC2CC(N(C)C)C(OC3CC(O)C(OC4CCC(=O)C(C)O4)C(C)O3)C(C)O2)c2c(cc3c(c2O)C(=O)c2c(O)cccc2C3=O)[C@H]1C(=O)OC` (some centres not stated), the T/C was 35 % of control (dose: 0.5 mg/kg/injection, schedule: Q01DX010 (ip), vehicle: water); 114 % of control (dose: 2.0 mg/kg/injection, schedule: Q04DX004 (ip), vehicle: water); 61 % of control (dose: 4.0 mg/kg/injection, schedule: Q04DX004 (ip), vehicle: water); 25 % of control (dose: 4.0 mg/kg/injection, schedule: Q04DX004 (sc), vehicle: water); 37 % of control (dose: 8.0 mg/kg/injection, schedule: Q04DX004 (ip), vehicle: water); 4 % of control (dose: 8.0 mg/kg/injection, schedule: Q04DX004 (sc), vehicle: water).

In the case of `N#C[Se-].c1ccc([Te+](c2ccccc2)c2ccccc2)cc1`, the T/C is 64 % of control (dose: 12.5 mg/kg/injection, schedule: Q04DX004 (sc), vehicle: Klucel (hydroxypropylcellulose) (HPC)) and 44 % of control (dose: 25.0 mg/kg/injection, schedule: Q04DX004 (sc), vehicle: Klucel (hydroxypropylcellulose) (HPC)).

As for `O=C[C@@H](CO)O[C@H](C=O)n1cnc2c(=O)[nH]cnc21`, the T/C reads like this: (dose: 225.0 mg/kg/injection, schedule: Q04DX004 (sc), vehicle: saline) 76 % of control; (dose: 450.0 mg/kg/injection, schedule: Q04DX004 (sc), vehicle: saline) 86 % of control; (dose: 900.0 mg/kg/injection, schedule: Q04DX004 (sc), vehicle: saline) 93 % of control.

With `NC(=S)c1cn(C2OC(CO)C(O)C2O)c2ncnc(N)c12` (configuration not stated), the T/C was 62 % of control (dose: 6.25 mg/kg/injection, schedule: Q04DX004 (sc), vehicle: suspension in saline) and 79 % of control (dose: 12.5 mg/kg/injection, schedule: Q04DX004 (sc), vehicle: suspension in saline).

Take `O=C(O)Cc1cccc2c(=O)cc(-c3ccccc3)oc12`: the T/C by setting is: (dose: 112.0 mg/kg/injection, schedule: Q04DX003 (ip), vehicle: sodium bicarbonate) 42 % of control; (dose: 150.0 mg/kg/injection, schedule: Q04DX003 (ip), vehicle: sodium bicarbonate) 90 % of control; (dose: 200.0 mg/kg/injection, schedule: Q01DX001 (ip), vehicle: sodium bicarbonate) 105 % of control; (dose: 200.0 mg/kg/injection, schedule: Q04DX003 (ip), vehicle: sodium bicarbonate) 46 % of control; (dose: 267.0 mg/kg/injection, schedule: Q01DX001 (ip), vehicle: sodium bicarbonate) 52 % of control.

With `CN1C(=O)C(=Cc2ccc(O)cc2)C(=O)N(C)C1=O`, the T/C reads like this: under setting [1], 116 % of control; under setting [2], 101 % of control; under setting [3], 99 % of control; (dose: 1200.0 mg/kg/injection, schedule: Q04DX004 (sc), vehicle: saline with Tween-80) 74 % of control.

As to `CC(C)[C@]12O[C@H]1[C@@H]1O[C@]13[C@]1(O[C@H]1C[C@H]1C4=C(C(=O)OC4)[C@@H](O)C[C@@]13C)[C@@H]2O`, the T/C runs as follows: (dose: 0.1 mg/kg/injection, schedule: Q01DX010 (sc), vehicle: saline + alcohol) 63 % of control; (dose: 0.2 mg/kg/injection, schedule: Q01DX010 (sc), vehicle: saline + alcohol) 77 % of control.

As for `CCO/C=C1\SC(=S)N(c2ccccc2C)C1=O`, the T/C by setting is: (dose: 100.0 mg/kg/injection, schedule: Q01DX010 (sc), vehicle: saline with Tween-80) 80 % of control; (dose: 200.0 mg/kg/injection, schedule: Q01DX010 (sc), vehicle: saline with Tween-80) 102 % of control; (dose: 400.0 mg/kg/injection, schedule: Q01DX010 (sc), vehicle: saline with Tween-80) 177 % of control; (dose: 800.0 mg/kg/injection, schedule: Q01DX010 (sc), vehicle: saline with Tween-80) 107 % of control.

Take `COc1c(O)c2c(c3cc(C(=O)N4CCc5c4c(O)c(OC)c4[nH]c(C(=O)N6CC7CC78C6=CC(=O)c6[nH]cc(C)c68)cc54)[nH]c13)CCN2C(N)=O` (configuration not stated): the T/C (dose: 6.25 micrograms/kg/injection, schedule: Q01DX010 (sc), vehicle: DMSO) is 96 % of control; the T/C (dose: 12.5 micrograms/kg/injection, schedule: Q01DX010 (sc), vehicle: DMSO) is 108 % of control; the T/C (dose: 25.0 micrograms/kg/injection, schedule: Q01DX010 (sc), vehicle: DMSO) was 65 % of control; the T/C (dose: 50.0 micrograms/kg/injection, schedule: Q01DX010 (sc), vehicle: DMSO) was 89 % of control.

For `CCN(CC)CCOCCO`, the T/C under setting [5] was 113 % of control and the T/C under setting [6] is 89 % of control.

Regarding `CC(=O)N(C)C`, the T/C was 112 % of control (dose: 1350.0 mg/kg/injection, schedule: Q04DX004 (sc), vehicle: saline) and 45 % of control (dose: 2700.0 mg/kg/injection, schedule: Q04DX004 (sc), vehicle: saline).

For `NC(CCC(=O)NC(CS)C(=O)NCC(=O)O)C(=O)O` (configuration not stated), the T/C reads like this: under setting [5], 78 % of control; under setting [6], 168 % of control; (dose: 600.0 mg/kg/injection, schedule: Q04DX004 (sc), vehicle: saline) 87 % of control.
